# Measurements taken from patent EP2927230A1, “PENTAMETHINIUM SALTS WITH AN EXPANDED QUINOXALINE UNIT AND ITS USE IN ANTICANCER THERAPY” (University of Chemistry and Technology - Prague, priority 2014, dated 2015).
# Legend:
# [1] = system: MCF-7 (breast cancer cells); assay: Cytotoxicity (MTT) assay; format: cell-based; conditions: MCF-7 cell line
# Protocol: (§1) Cells were seeded into 96-well microtitre plates to the expected target cell density (2,500-30,000 cells-well^-1, according to the particular cell line). The inoculant were pre-incubated to stabilize for 24 h (at 37°C and 5 % CO^2). Fourfold dilutions (0-200 µmol·L^-1; in triplicates) of the tested compound 1 were added to the microtitre plate wells at time zero. The cells were treated with compound 1 for 72 h under standard cultivation conditions. Then, the cells were assayed using MTT for 4 h. Produced formazan, arisen by mitochondrial reduction of MTT, was dissolved in 10 % aqueous solution of sodium dodecyl sulphate (pH 5.5; 100 µL·well^-1, hole diameter is 6.54 mm) followed by overnight incubation. […] The absorption of the produced formazan was measured at 540 nm using Labsystem iEMS Reader MF. The tumor cell inhibitory concentration (IC) of compound 1 was calculated using the following equation: IC = (ODdrug / mean ODcontrol) · 100 %. The IC50 (Table 1) value (drug concentration being lethal for 50 % of the cells) was calculated from appropriate dose-response curves. (Noskova, V.; Dz ? ubak, P.; Kuzmina, G.; Ludkova, A.; Stehlik, D.; Trojanec, R.; Jano ? akova, A.; Kor ? inkova, G.; Mihal, V.; Hajduch, M. Neoplasma 2002, 49, 418-425. 38. Hajduch, M.; Mihal, V.; Minar ? ik, J.; Faber, E.; ? afarova, M.; Weigl, E.; Antalek, P. Cytotechnology 1996, 19, 243-245)
# [2] = system: U-2 OS (human osteosarcoma); assay: Cytotoxicity (MTT) assay; format: cell-based; conditions: U-2 OS cell line
# Protocol: as §1
# [3] = system: 4T1(mouse mammary gland carcinoma); assay: Cytotoxicity (MTT) assay; format: cell-based; conditions: 4T1 cell line
# Protocol: as §1
# [4] = system: MiaPaCa-2 (human pancreatic carcinoma); assay: Cytotoxicity (MTT) assay; format: cell-based; conditions: MiaPaCa-2 cell line
# Protocol: as §1
# [5] = system: MDA-MB-231 (human breast carcinoma); assay: Cytotoxicity (MTT) assay; format: cell-based; conditions: MDA-MB-231 cell line
# Protocol: as §1
# [6] = system: LNCaP (human prostate carcinoma); assay: Cytotoxicity (MTT) assay; format: cell-based; conditions: LNCaP cell line
# Protocol: as §1
# [7] = system: PE/CA-PJ34 (human basaloid squamous cell carcinoma); assay: Cytotoxicity (MTT) assay; format: cell-based; conditions: PE/CA-PJ34 cell line
# Protocol: as §1
# [8] = system: human breast carcinoma (MDA-MB-231); assay: Effect on tumor growth in vivo (subcutaneous xenograft); design: species or system Nu/nu mice
# Source text: Effect of salt 1 on tumor growth in vivo. […] The control group (◆) consisted of untreated mice with a tumor.
compound,measurement,setting,value
CCCN1C(=C2C=C(C=Cc3sc4ccccc4[n+]3CCC)c3nc4ccccc4nc32)Sc2ccccc21 [compound 1],cytotoxicity,[1],high cytotoxicity
same,cytotoxicity,[2],high cytotoxicity
same,cytotoxicity,[3],high cytotoxicity
same,cytotoxicity,[4],high cytotoxicity
same,cytotoxicity,[5],high cytotoxicity
same,cytotoxicity,[6],high cytotoxicity
same,cytotoxicity,[7],high cytotoxicity
same,tumor growth,"[8]; Nu/nu mice with MDA-MB-231, after application, for the duration of the experiment (more than 40 days)",practically stopped
same,anticancer effect,[8]; Nu/nu mice with human breast carcinoma (MDA-MB-231),high anticancer effect
same,differences in the tumor volume of control mice versus treated mice,"[8]; intravenously, 5 mgkg-1, twice a week, * p<0.05, ** p<0.01, n=5 mice per group",Statistically significant differences
